Source: ChEMBL document CHEMBL3044980, “Free radical scavenging and hepatoprotective effects of salidroside analogs on CCl4-induced cytotoxicity in LO2 cells” (Med Chem Res, 2013)
Blank lines part the entries; values can stand above or below the compound they belong to. Calls of active or inactive are those of the source. The calls are words filed in the database; no cut-off is given here.

How the values were obtained:
[1] = Antioxidant activity assessed as decrease in initial DPPH concentration after 30 min by MicroELISA reader analysis; type: functional
L02 [2] = assay: Hepatoprotective activity in Homo sapiens (human) LO2 cells assessed as reversal of CCl4-induced decrease in superoxide dismutase activity at 1 mM treated prior to CCl4 addition measured after 24 hr by xanthine/xanthine oxidase assay (CCl4 Rvb = 47 +/-4.4%); type: functional; parameters: scale not given: the % may be the effect or the level left
L02 [3] = assay: Hepatoprotective activity in Homo sapiens (human) LO2 cells assessed as reversal of CCl4-induced increase in malondialdehyde level at […] treated prior to CCl4 addition measured after 24 hr (CCl4 Rvb = 170 +/-4.3%); type: functional
L02 [4] = assay: Hepatoprotective activity in Homo sapiens (human) LO2 cells assessed as reversal of CCl4-induced decrease in superoxide dismutase activity at 10 mM treated prior to CCl4 addition measured after 24 hr by xanthine/xanthine oxidase assay (CCl4 Rvb = 47 +/-4.4%); type: functional; parameters: scale not given: the % may be the effect or the level left
L02 [5] = assay: Hepatoprotective activity in Homo sapiens (human) LO2 cells assessed as reversal of CCl4-induced increase in malondialdehyde level at 10 mM treated prior to CCl4 addition measured after 24 hr (CCl4 Rvb = 170 +/-4.3%); type: functional
L02 [6] = assay: Hepatoprotective activity in Homo sapiens (human) LO2 cells assessed as protection against CCl4-induced cytotoxicity at 10 to […] treated prior to CCl4 addition measured after 24 hr by MTT assay; type: functional, cell-based
L02 [7] = assay: Hepatoprotective activity in Homo sapiens (human) LO2 cells assessed as protection against CCl4-induced cytotoxicity at […] treated prior to CCl4 addition measured after 24 hr by MTT assay; type: functional, cell-based
L02 [8] = assay: Hepatoprotective activity in Homo sapiens (human) LO2 cells assessed as reversal of CCl4-induced increase in malondialdehyde level at 1 mM treated prior to CCl4 addition measured after 24 hr (CCl4 Rvb = 170 +/-4.3%); type: functional
L02 [9] = assay: Hepatoprotective activity in Homo sapiens (human) LO2 cells assessed as protection against CCl4-induced cytotoxicity at 50 to […] treated prior to CCl4 addition measured after 24 hr by MTT assay; type: functional, cell-based
L02 [10] = assay: Hepatoprotective activity in Homo sapiens (human) LO2 cells assessed as reversal of CCl4-induced decrease in GSH-Px activity at 1 mM treated prior to CCl4 addition measured after 24 hr (CCl4 Rvb = 49 +/-3.8%); type: functional; parameters: scale not given: the % may be the effect or the level left
L02 [11] = assay: Hepatoprotective activity in Homo sapiens (human) LO2 cells assessed as reversal of CCl4-induced decrease in GSH-Px activity at 50 mM treated prior to CCl4 addition measured after 24 hr (CCl4 Rvb = 49 +/-3.8%); type: functional; parameters: scale not given: the % may be the effect or the level left
L02 [12] = assay: Hepatoprotective activity in Homo sapiens (human) LO2 cells assessed as reversal of CCl4-induced increase in malondialdehyde level at 50 mM treated prior to CCl4 addition measured after 24 hr (CCl4 Rvb = 170 +/-4.3%); type: functional
L02 [13] = assay: Hepatoprotective activity in Homo sapiens (human) LO2 cells assessed as reversal of CCl4-induced decrease in superoxide dismutase activity at […] treated prior to CCl4 addition measured after 24 hr by xanthine/xanthine oxidase assay (CCl4 Rvb = 47 +/-4.4%); type: functional; parameters: scale not given: the % may be the effect or the level left
L02 [14] = assay: Hepatoprotective activity in Homo sapiens (human) LO2 cells assessed as reversal of CCl4-induced decrease in GSH-Px activity at […] treated prior to CCl4 addition measured after 24 hr (CCl4 Rvb = 49 +/-3.8%); type: functional; parameters: scale not given: the % may be the effect or the level left
L02 [15] = assay: Hepatoprotective activity in Homo sapiens (human) LO2 cells assessed as reversal of CCl4-induced decrease in GSH-Px activity at 10 mM treated prior to CCl4 addition measured after 24 hr (CCl4 Rvb = 49 +/-3.8%); type: functional; parameters: scale not given: the % may be the effect or the level left
L02 [16] = assay: Hepatoprotective activity in Homo sapiens (human) LO2 cells assessed as reversal of CCl4-induced decrease in superoxide dismutase activity at 50 mM treated prior to CCl4 addition measured after 24 hr by xanthine/xanthine oxidase assay (CCl4 Rvb = 47 +/-4.4%); type: functional; parameters: scale not given: the % may be the effect or the level left

IC50 [1]: 40.8 µM
SMILES: COc1cc(CCO[C@@H]2O[C@H](CO)[C@H](O)[C@H](O)[C@H]2O)ccc1O

IC50 [1]: 70.1 µM
SMILES: COc1cc(CCO[C@@H]2O[C@H](CO)[C@H](O)[C@H](O)[C@H]2O)cc(OC)c1O

IC50 [1]: 59.8 µM
SMILES: COc1cc(CCO[C@@H]2O[C@H](CO)[C@@H](O)[C@H](O)[C@H]2O)ccc1O

IC50 [1]: 61.6 µM
SMILES: COc1cc(CCO[C@@H]2O[C@H](CO)[C@@H](O)[C@H](O)[C@H]2O)cc(OC)c1O

IC50 [1]: > 100 µM
SMILES: OC[C@H]1O[C@@H](OCCc2ccc(O)c(Br)c2)[C@H](O)[C@@H](O)[C@H]1O

IC50 [1]: 35.9 µM
SMILES: OC[C@H]1O[C@@H](OCCc2cc(O)c(O)c(O)c2)[C@H](O)[C@@H](O)[C@H]1O
Activity (L02 [2]): 54%
Activity (L02 [3]): 110%
Activity (L02 [4]): 65%
Activity (L02 [5]): 141%
Activity (L02 [6]): Active
Activity (L02 [7]): Active
Activity (L02 [8]): 164%
Activity (L02 [9]): Active
Activity (L02 [10]): 55%
Activity (L02 [11]): 78%
Activity (L02 [12]): 119%
Activity (L02 [13]): 89%
Activity (L02 [14]): 86%
Activity (L02 [15]): 64%
Activity (L02 [16]): 76%

IC50 [1]: 66.8 µM
SMILES: CCOc1cc(CCO[C@@H]2O[C@H](CO)[C@@H](O)[C@H](O)[C@H]2O)ccc1O

IC50 [1]: 54.6 µM
SMILES: O=C1O[C@H]([C@@H](O)CO)C(O)=C1O [ASCORBIC ACID]

IC50 [1]: 38.1 µM
SMILES: OC[C@H]1O[C@@H](OCCc2cc(O)c(O)c(O)c2)[C@H](O)[C@@H](O)[C@@H]1O
Activity (L02 [2]): 50%
Activity (L02 [3]): 117%
Activity (L02 [4]): 55%
Activity (L02 [5]): 151%
Activity (L02 [6]): Active
Activity (L02 [7]): Active
Activity (L02 [8]): 167%
Activity (L02 [9]): Active
Activity (L02 [10]): 54%
Activity (L02 [11]): 71%
Activity (L02 [12]): 128%
Activity (L02 [13]): 83%
Activity (L02 [14]): 80%
Activity (L02 [15]): 57%
Activity (L02 [16]): 70%

SMILES: OC[C@H]1O[C@@H](OCCc2ccc(O)cc2)[C@H](O)[C@@H](O)[C@@H]1O [SALIDROSIDE]
Activity (L02 [2]): 49%
Activity (L02 [3]): 157%
Activity (L02 [4]): 52%
Activity (L02 [5]): 165%
Activity (L02 [6]): Active
Activity (L02 [7]): Active
Activity (L02 [8]): 168%
Activity (L02 [9]): Active
Activity (L02 [10]): 51%
Activity (L02 [11]): 56%
Activity (L02 [12]): 162%
Activity (L02 [13]): 61%
Activity (L02 [14]): 61%
Activity (L02 [15]): 53%
Activity (L02 [16]): 56%

IC50 [1]: > 100 µM
SMILES: OC[C@H]1O[C@@H](OCCc2cc(Br)c(O)c(Br)c2)[C@H](O)[C@@H](O)[C@H]1O

IC50 [1]: 87.5 µM
SMILES: CCOc1cc(CCO[C@@H]2O[C@H](CO)[C@H](O)[C@H](O)[C@H]2O)ccc1O

IC50 [1]: > 100 µM
SMILES: OC[C@H]1O[C@@H](OCCc2cc(Br)c(O)c(Br)c2)[C@H](O)[C@@H](O)[C@@H]1O

IC50 [1]: > 100 µM
SMILES: OC[C@H]1O[C@@H](OCCc2ccc(O)c(Br)c2)[C@H](O)[C@@H](O)[C@@H]1O
